Source: PMC9688475, “Identification and Analysis of Small Molecule Inhibitors of CRISPR-Cas9 in Human Cells” (Cells, 2022)

How the values were obtained:
SpCas9 [1] = molecular target: T1, SpCas9 (Streptococcus pyogenes serotype M1, UniProt Q99ZW2); assay: Inhibition of SpCas9 nuclease activity in EGFP/iCas9/gRNA-EGFP reporter 293T cells (flow cytometry); format: cell-based; design: expressed in transfected cells; host or cells: H2AX-EGFP HEK293T cells, lentiviral transduction, doxycycline-induced; details: for SpCas9 inhibition in reporter cells: Dox 2 μg/mL, 72 h
Text: The H2AX-EGFP 293T cell line was first generated using the previously reported MMEJ-mediated CRIS-PITCh system. Briefly, we cloned two gRNAs (Supplementary Table S3) that respectively target H2AX gene and the PITCh vector into the px330 plasmid (Addgene, #42230). The PITCh vector contains a pair of 20-bp homologous sequences targeting the upstream and downstream regions of the H2AX gRNA cleavage site, and the SFB-EGFP expression cassette. The three plasmids were co-transfected into 293T cells at an equimolar ratio. GFP-positive cells were sorted by FACS and individually expanded to isolate single clones for genomic DNA extraction and PCR verification of successful knock-in (KI) of the SFB-EGFP cassette into 5′-end of first exon of the H2AX gene. The selected H2AX-EGFP 293T cell clone was subsequently infected with lentiviruses encoding tetracycline-inducible SpCas9 (iCas9). After drug selection, individual clones were again expanded and verified for inducible Cas9 expression. The selected clone was subsequently infected with lentivirus encoding a gRNA that targets EGFP. Puromycin-resistant clones ([…], Thermo Fisher Scientific) were then isolated after >7 days for further analysis.

SpCas9 [2] = molecular target: T1, SpCas9; assay: SpCas9 in vitro DNA cleavage assay; format: biochemical; design: His6 (N); TEV site (N); made in house; host or cells: E. coli BL21 Star (DE3); details: for inhibitory activity in in vitro SpCas9 cleavage (in words): compound 200 μM
Procedure: The assay was carried out in NEBuffer 3 (New England Biolabs, Ipswich, MA, USA). First, 19.2 μL of the SpCas9–gRNA (58.8 nM) mixture was incubated with 2.4 μL of various compounds (dissolved in DMSO) at desired concentrations (0.1–2 mM) at room temperature for 10 min. Then, 2.4 μL of 3.48 nM ApaI-linearized px458 plasmid was added for further incubation at 37 °C for 60 min. The reaction was terminated by adding 0.5 μL Proteinase K (20 mg/mL) (Invitrogen) and incubation at 55 °C for 15 min. The reaction products were resolved on a 0.7% TAE agarose gel, stained with Gel Red (Biotium, Fremont, CA, USA). Then the products were visualized by Chemidoc XRS plus system (Bio-Rad, Hercules, CA, USA), and band intensities were quantified using ImageJ software (National Institutes of Health developed; Bethesda, MD, USA). The inhibition efficiency in the cleavage assays was calculated using the following equation: E = (C1 − C2)/C1 × 100%, where E is the inhibition efficiency, and C1 and C2 are the cleavage rate of the DMSO group and compound treated group, respectively.
The cleavage rate was calculated using the following equation:C = (B1 + B2)/(B0 + B1 + B2) × 100%, where C is the cleavage rate, B0, B1, and B2 are the band intensities of uncleaved products, upper cleaved products, and lower cleaved products, respectively.

[3] = tested on: EGFP expression in uninduced reporter 293T cells; assay: EGFP expression in uninduced reporter 293T cells; format: cell-based, human; details: uninduced; for effect on EGFP expression in uninduced cells: 40 μM
Procedure: The reporter 293T cells were seeded into 96-well plates at a density of 10,000 cells per well and cultured overnight before the addition of DMSO alone or various compounds (in DMSO solution) at appropriate concentrations (0.125–100 μM) with or without 2 μg/mL doxycycline for an additional 72 h of incubation. The cells were then harvested for analysis with the CytoFLEX flow cytometer (Beckman Coulter, Brea, CA, USA) or analyzed by western blot with antibodies as indicated. […] The inhibiting efficiency in reporter 293T cells was calculated using the following equation: E’ = (P2 − P1)/(P0 − P1) × 100%, where E’ is the inhibiting efficiency in reporter 293T cells, and P0, P1, and P2 are the GFP positive cell ratio of the uninduced group, Dox and DMSO treated control group, and Dox and compound treated group, respectively.

T1 sequence (Q99ZW2 whole entry): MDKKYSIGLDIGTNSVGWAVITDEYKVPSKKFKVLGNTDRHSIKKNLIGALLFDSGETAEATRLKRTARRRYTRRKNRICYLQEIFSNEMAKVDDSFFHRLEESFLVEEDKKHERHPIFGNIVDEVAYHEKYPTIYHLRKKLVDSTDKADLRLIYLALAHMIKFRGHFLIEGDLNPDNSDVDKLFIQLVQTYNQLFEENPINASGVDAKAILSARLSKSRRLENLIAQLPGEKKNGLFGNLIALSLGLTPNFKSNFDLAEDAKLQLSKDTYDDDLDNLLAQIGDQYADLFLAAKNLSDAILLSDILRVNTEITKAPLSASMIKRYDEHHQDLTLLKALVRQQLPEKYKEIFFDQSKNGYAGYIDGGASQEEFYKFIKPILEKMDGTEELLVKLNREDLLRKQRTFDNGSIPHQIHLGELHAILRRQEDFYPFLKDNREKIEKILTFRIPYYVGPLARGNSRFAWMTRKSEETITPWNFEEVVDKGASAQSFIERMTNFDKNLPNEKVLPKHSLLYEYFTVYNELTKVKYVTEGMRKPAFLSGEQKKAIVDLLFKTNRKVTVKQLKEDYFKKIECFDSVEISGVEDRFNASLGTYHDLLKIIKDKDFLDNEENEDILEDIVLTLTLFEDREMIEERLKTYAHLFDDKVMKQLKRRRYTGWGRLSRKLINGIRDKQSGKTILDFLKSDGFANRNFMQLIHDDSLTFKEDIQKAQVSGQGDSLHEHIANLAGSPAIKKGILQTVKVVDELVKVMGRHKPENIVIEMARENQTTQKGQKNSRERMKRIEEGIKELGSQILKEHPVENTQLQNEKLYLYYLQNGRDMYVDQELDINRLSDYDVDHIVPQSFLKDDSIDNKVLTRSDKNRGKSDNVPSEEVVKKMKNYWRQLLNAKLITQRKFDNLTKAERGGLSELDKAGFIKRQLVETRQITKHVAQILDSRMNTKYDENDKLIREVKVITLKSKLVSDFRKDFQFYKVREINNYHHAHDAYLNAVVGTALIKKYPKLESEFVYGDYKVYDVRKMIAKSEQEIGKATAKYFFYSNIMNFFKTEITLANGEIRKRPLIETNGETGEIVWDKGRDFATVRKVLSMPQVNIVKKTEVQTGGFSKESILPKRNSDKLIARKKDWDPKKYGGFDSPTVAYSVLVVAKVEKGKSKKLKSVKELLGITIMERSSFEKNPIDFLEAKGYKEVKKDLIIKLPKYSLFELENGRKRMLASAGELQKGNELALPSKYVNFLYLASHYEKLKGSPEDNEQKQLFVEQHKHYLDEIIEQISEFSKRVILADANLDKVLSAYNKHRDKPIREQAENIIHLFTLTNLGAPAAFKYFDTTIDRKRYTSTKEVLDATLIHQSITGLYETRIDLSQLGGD

| Structure (SMILES) | SpCas9 inhibition in reporter cells (SpCas9 [1]; 10 μM) | SpCas9 inhibition in reporter cells (SpCas9 [1]; 40 μM) | also measured |
| --- | --- | --- | --- |
| Cc1cccc(N/N=C(/C#N)C(=O)c2ccc(Br)cc2)c1 [SP12] | less than 50% | > 50% |  |
| CC1(C)CC(=O)C(N=Nc2ccc3ncsc3c2)=C(O)C1 [SP36] |  | less than 50% |  |
| O=C1CCCC/C1=N/Nc1ccc(N2CCCCC2)cc1 [SP5] |  | less than 50% |  |
| O=C(C=NNc1ccc(Cl)cc1)c1ccc(Br)cc1 [C12b, 1-(4-bromophenyl)-2-(2-(4-chlorophenyl)hydrazono)ethanone] |  |  | melting point: 235.2 to 237.2 °C; inhibitory activity in in vitro SpCas9 cleavage (in words) (SpCas9 [2]): strong inhibitory activities; inhibition at 200 µM (SpCas9 [2]; read-out: inhibition rate, in vitro SpCas9 cleavage): 89% |
| Cc1ccc(C(=O)/C(C#N)=N\Nc2ccc([N+](=O)[O-])cc2)cc1 [SP15] | 50% |  | effect on EGFP expression in uninduced cells [3]: reduce EGFP expression (albeit slightly) |
| COc1cc(Cl)ccc1N=NC1C(=O)N(c2ccccc2)N=C1C (stereo not drawn) [SP28] |  | less than 50% |  |
| O=C1CCCC/C1=N\Nc1ccc(OCc2ccccc2)cc1 [SP19] |  | less than 50% |  |
| O=C(C=NNc1cc([N+](=O)[O-])ccc1O)c1ccc(Br)cc1 [C12c, 1-(4-bromophenyl)-2-(2-(2-hydroxy-5-nitrophenyl)hydrazono)ethanone] |  |  | effect on EGFP expression in uninduced reporter 293T cells ([3]; concentration not given): did not negatively affect; melting point: 246.6 to 247.2 °C; inhibitory activity in in vitro SpCas9 cleavage (in words) (SpCas9 [2]): weakly inhibited; inhibition at 40 µM (SpCas9 [1]; HEK-293T, read-out: SpCas9 inhibition in reporter cells): ~50% |
| COc1ccc(C(=O)Oc2ccccc2/C=N\Nc2ccc([N+](=O)[O-])cc2)cc1 [SP8] |  | less than 50% |  |
| O=C(C(=NNc1ccc([N+](=O)[O-])cc1)n1cncn1)c1ccc(F)cc1F [C12d, 1-(2,4-difluorophenyl)-2-(2-(4-nitrophenyl)hydrazono)-2-(1H-1,2,4-triazol-1-yl)ethanone] |  |  | inhibitory activity in in vitro SpCas9 cleavage (in words) (SpCas9 [2]): weakly inhibited |
| COc1ccc(C(=O)/C(C#N)=N/Nc2ccccc2[N+](=O)[O-])cc1 [SP14] | 50% |  | effect on EGFP expression in uninduced cells [3]: reduce EGFP expression (albeit slightly) |
| CC1=NN(c2ccccc2)C(=O)C1N=Nc1nc2ccccc2s1 (stereo not drawn) [SP29] | 50% |  | effect on EGFP expression in uninduced cells [3]: reduce EGFP expression (albeit slightly) |
| CCC(=O)C=NNc1ccc([N+](=O)[O-])cc1 [C9, 1-(2-(4-nitrophenyl) hydrazono)butanone] |  |  | melting point: 190.3 to 191.7 °C |
| O=C1CCCC/C1=N\Nc1ccc([N+](=O)[O-])cc1 [SP6] |  | less than 50% |  |
| O=C1CCCC/C1=N/Nc1ccc(OC2CCCCC2)cc1 [SP9] | less than 50% | > 50% |  |
| Cc1nc2ccc(N=NC3=C(O)CCCC3=O)cc2s1 [SP33] |  | less than 50% |  |
| CCOC(=O)c1oc2c(c1C)/C(=N\Nc1ccc([N+](=O)[O-])cc1)CCC2 [SP34] |  | less than 50% |  |
| O=C(Oc1ccc(/C=N/Nc2ccccc2)cc1)c1cc([N+](=O)[O-])cc([N+](=O)[O-])c1 [SP32] | less than 50% | > 50% |  |
| CCCCOC(=O)c1ccc(NN=c2c(=O)c3ccccc3c2=O)cc1 [SP11] |  | less than 50% |  |
